{
  "source": "patent US8153601B2",
  "about": "“Azithromycin-containing aqueous pharmaceutical composition and a method for the preparation of the same” (Wakamoto Pharmaceutical Co., Ltd., priority 2004, dated 2012)",
  "experiment": "Stability of azithromycin during the preparation steps (survival rate of AZT after preparation, HPLC)",
  "assay_type": "physicochemical",
  "conditions": "pH of the azithromycin-containing aqueous solution less than 4.0",
  "procedure": "Stability of the azithromycin-containing aqueous pharmaceutical compositions prepared in the above Examples and Comparative Examples were evaluated in terms of azithromycin concentration in the composition.\nThe compositions (Examples 1 to 8 and Comparative Examples 1 and 2) were packed in glass vial, sealed with a lid, and stored at 60° C. for one and two weeks. Then, azithromycin concentration in the composition just after packed in the glass vial and after the storage at 60° C. was determined by HPLC. Stability was evaluated as follows.\nFirst, the azithromycin content added was compared with the azithromycin content in the composition just after packed in the glass vial to evaluate stability of azithromycin during the preparation steps. This is expressed by a survival rate of AZT after preparation wherein AZT means azithromycin.\nThe same procedures in Test Example 1 were repeated to evaluate stability of the compositions of Examples 9 to 12 and Comparative Example 3.\nThe similar procedures to Test Example 1 were repeated to evaluate stability of the compositions of Examples 18 to 20.",
  "data": [
    {"smiles": "CC[C@H]1OC(=O)[C@H](C)[C@@H](O[C@H]2C[C@@](C)(OC)[C@@H](O)[C@H](C)O2)[C@H](C)[C@@H](O[C@@H]2O[C@H](C)C[C@H](N(C)C)[C@H]2O)[C@](C)(O)C[C@@H](C)CN(C)[C@H](C)[C@@H](O)[C@]1(C)O", "note": "[azithromycin]", "values": [
      {"measurement": "decomposition of azithromycin in aqueous solution", "result": "decomposed"}
    ]}
  ]
}
